Test results as given in patent publication US8420657B2 (Novartis AG, priority 2008, dated 2013).

Legend:
GST-JAK2(808-1132) = biological target: T1, GST-JAK2(808-1132) (Homo sapiens, UniProt O60674); assay: JAK2 kinase assay (Caliper mobility shift, LabChip 3000); type: biochemical
T1 construct: GST-JAK2(808-1132); purchased Invitrogen (Carlsbad, USA) #4288
In short: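 Eight-point compound series (final 10–0.003 μM) tested on purchased GST-JAK2 kinase domain (808-1132). Peptide FITC-JAK3tide plus ATP reacted 60 min, 30 °C, then quenched with EDTA; turnover from charge-based separation of substrate and product.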

[1] = tested on: JAK1/JAK2-dependent nuclear translocation of STAT1-GFP in HT1080 fibrosarcoma cells; assay: STAT1 nuclear translocation assay (Cellomics), IFN-γ stimulated HT1080 STAT1-GFP cells; type: cell-based; details: Homo sapiens, HT-1080, STAT1 translocation pathway
Excerpt: The medium-throughput (96-well format) cellular automated fluorescence microscopy Cellomics assay can be routinely used to assess the functional activation of Janus Kinases (JAKs), based on the nuclear translocation of their substrate, Signal Transducer and Activator of Transcription (STAT). Nuclear translocation can be monitored either in HT1080 fibrosarcoma cells stably transfected with STAT1 fused to Green Fluorescence Protein (GFP) or in U-2 OS osteosarcoma cells stably transfected with STAT5 fused to Green Fluorescence Protein (GFP). Stimulation of HT1080 cells with interferon-γ (IFN-γ) results in JAK1/JAK2-dependent nuclear translocation of STAT1-GFP, whereas stimulation of U-2 OS cells with recombinant human erythropoietin (rhEpo) results in JAK2-dependent nuclear translocation of STAT5-GFP, both of which can be quantified using the Cellomics Cyto/NucTrans software package. This assay may be used to provide an assessment of the nuclear-cytoplasmic differential (NCD) of STAT-GFP using Hoechst dye to define the boundaries of the nucleus.
HT1080 fibrosarcoma cells may be obtained from ATCC and can be cultured in alpha Modified Eagle Medium with 10% FCS. Cells can be transfected with pEGFP-N2 STAT1 using Fugene 6 Transfection Reagent following the manufacturers' protocol. 24 hours after transfection the medium can be replaced and selected in 1 mg/ml Geneticin.
Compounds can be dissolved in DMSO to a final stock concentration of 10 mM and stored as aliquots at 4° C. Compounds may be pre-diluted in 100% DMSO at 10 mM, 3 mM 1 mM, 0.3 mM, 0.1 mM, 0.03 mM, 0.01 mM and 0.003 mM. Subsequently, compounds may be diluted in medium and added in 50 μl to the cells. The final compound concentrations tested may be 10 μM, 3 μM 1 μM, 0.3 μM, 0.1 μM, 0.03 μM, 0.01 μM and 0.003 μM and the final DMSO concentration can be 0.1%.
HT1080 STAT1-GFP cells may be seeded at a density of 10,000 cells per well in clear-bottom black 96-well Packard View-Plates™. 16-24 hours later, the cells can be treated for 2 hours with 100 ng/ml IFN-γ, washed twice in pre-warmed PBS and fixed in 200 μl of pre-warmed fixation solution (PBS, 3.7% Formaldehyde) for 10 minutes. The plates may be washed twice in 200 μl PBS and incubated, protected from light, in 100 μl of DNA-staining solution (PBS, 0.5 μg/ml Hoechst-33342) for 1 minute. The plates may then be washed once in PBS, and 200 μl PBS finally added per well. The plates, being finally covered with a black adhesive, may be either read directly or stored at 4° C. for later imaging. Where appropriate, the compounds may be added 30 min before stimulation with IFN-γ.
The plates can be read on a Cellomics® ArrayscanII automated fluorescence microscope plate reader equipped with a Mercury-Xenon white light illumination source and a Zeiss Axiovert inverted microscope, using the XF100 dichroic/emission filter cube and matching excitation filters, 10× magnification, and a 0.3 numerical aperture objective. Image acquisition and analysis can be performed using a customized protocol based on the ‘NuclearTranslocation’ Bioapplication. For each well, multiple images (fields) can be acquired until a minimum of 1000 cells are counted using two 2 channels: Channel 1 (Hoechst)=focus+nuclear mask, Channel 2 (GFP)=signal quantification in mask areas as outlined below. Nuclei may be first identified based on the Hoechst staining and a mask generated for each nucleus that then serves as a template to generate a circle (eroded inwards by 1 pixel) and a 3 pixel-wide collar-like ring (off-set outwards by 1 pixel), in which the nuclear and cytoplasmic intensity of GFP, respectively, are quantified in the corresponding channel. High content analysis yields numerous measurements per cell and the GFP intensity differential between the nuclear and the cytoplasmic masks may be chosen as a measure of sub-cellular STAT-GFP relocation. The resulting values may be averaged for all cells in the well to return a single measurement plus standard deviation. […]

T1 sequence (O60674 808-1132): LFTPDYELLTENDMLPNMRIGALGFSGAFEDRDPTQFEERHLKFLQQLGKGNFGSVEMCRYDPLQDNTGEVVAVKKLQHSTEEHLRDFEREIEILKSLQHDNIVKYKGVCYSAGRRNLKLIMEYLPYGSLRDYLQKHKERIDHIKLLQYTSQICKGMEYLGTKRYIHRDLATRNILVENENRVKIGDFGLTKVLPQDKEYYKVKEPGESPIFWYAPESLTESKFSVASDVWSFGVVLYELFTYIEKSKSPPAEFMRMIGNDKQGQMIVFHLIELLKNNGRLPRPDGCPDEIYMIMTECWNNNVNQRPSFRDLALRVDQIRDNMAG

| Compound | IC50 (GST-JAK2(808-1132)) | IC50 [1] |
| --- | --- | --- |
| CN1CCN(C(=O)c2cccc(Nc3ncc4ccn(-c5ccc(S(C)(=O)=O)cc5)c4n3)c2)CC1 [Example 39, {3-[7-(4-Methanesulfonyl-phenyl)-7H-pyrrolo[2,3-d]pyrimidin-2-ylamino]-phenyl}-(4-methyl-piperazin-1-yl)-methanone] | 14 nM | 1370 nM |
| Cc1cc(Nc2ncc3ccn(-c4ccc(C(=O)N5CCOCC5)c(F)c4)c3n2)ccc1F [Example 92, {2-Fluoro-4-[2-(4-fluoro-3-methyl-phenylamino)-pyrrolo[2,3-d]pyrimidin-7-yl]-phenyl}-morpholin-4-yl-methanone] | 4.2 nM | 260 nM |
| Cc1cc(Nc2ncc3ccn(-c4ccc(C(=O)N5CCOCC5)c(C)c4)c3n2)ccc1F [Example 91, {4-[2-(4-Fluoro-3-methyl-phenylamino)-pyrrolo[2,3-d]pyrimidin-7-yl]-2-methyl-phenyl}-morpholin-4-yl-methanone] | < 3 nM | 435 nM |
| CN1CCN(c2ccc(Nc3ncc4ccn(-c5cc(F)c(CN6CCS(=O)(=O)CC6)c(F)c5)c4n3)cn2)CC1 [Example 443, {7-[4-(1,1-Dioxido-thiomorpholin-4-ylmethyl)-3,5-difluoro-phenyl]-7H-pyrrolo[2,3-d]pyrimidin-2-yl}-[6-(4-methyl-piperazin-1-yl)-pyridin-3-yl]-amine] | ≤ 3 nM | 9.5 nM |
| CN1CCN(c2cccc(Nc3ncc4ccn(-c5cc(F)c(CN6CCOCC6)c(F)c5)c4n3)c2)CC1 [Example 174, [7-(3,5-Difluoro-4-morpholin-4-ylmethyl-phenyl)-7H-pyrrolo[2,3-d]pyrimidin-2-yl]-[3-(4-methyl-piperazin-1-yl)-phenyl]-amine] | < 3 nM | 150 nM |
| CCOc1ccc(Nc2ncc3cc(C)n(-c4ccc(CC(=O)N5CCN(C)CC5)cc4)c3n2)cc1OCC [Example 167, 2-{4-[2-(3,4-Diethoxy-phenylamino)-6-methyl-pyrrolo[2,3-d]pyrimidin-7-yl]-phenyl}-1-(4-methyl-piperazin-1-yl)-ethanone] | 39 nM | 2070 nM |
| O=C(c1c(F)cc(-n2ccc3cnc(Nc4ccc(N5CCNCC5)nc4)nc32)cc1F)N1CCOCC1 [Example 262, {2,6-Difluoro-4-[2-(6-piperazin-1-yl-pyridin-3-ylamino)-pyrrolo[2,3-d]pyrimidin-7-yl]-phenyl}-morpholin-4-yl-methanone] | 4.2 nM | 285 nM |
| O=S1(=O)CCN(Cc2c(F)cc(-n3ccc4cnc(Nc5cccnc5)nc43)cc2F)CC1 [Example 182, {7-[4-(1,1-Dioxido-thiomorpholin-4-ylmethyl)-3,5-difluoro-phenyl]-7H-pyrrolo[2,3-d]pyrimidin-2-yl}-pyridin-3-yl-amine] | < 3 nM | 125 nM |
| O=C(c1c(F)cc(-n2ccc3cnc(Nc4ccc(N5CCN(CCO)CC5)nc4)nc32)cc1F)N1CCOCC1 [Example 264, [2,6-Difluoro-4-(2-{6-[4-(2-hydroxy-ethyl)-piperazin-1-yl]-pyridin-3-ylamino}-pyrrolo[2,3-d]pyrimidin-7-yl)-phenyl]-morpholin-4-yl-methanone] | < 3 nM | 165 nM |
| CN(C)C1CCN(C(=O)c2ccc(Nc3ncc4ccn(-c5ccc(S(C)(=O)=O)cc5)c4n3)cc2)CC1 [Example 66, (4-Dimethylamino-piperidin-1-yl)-{4-[7-(4-methanesulfonyl-phenyl)-7H-pyrrolo[2,3-d]pyrimidin-2-ylamino]-phenyl}-methanone] | 3.5 nM | 75.5 nM |
| N#Cc1ccc(Nc2ncc3ccn(-c4ccc(C(=O)N5CCOCC5)cc4)c3n2)cc1 [Example 237, 4-{7-[4-(Morpholine-4-carbonyl)-phenyl]-7H-pyrrolo[2,3-d]pyrimidin-2-ylamino}-benzonitrile] | 7 nM | 2560 nM |
| COc1cc(Nc2ncc3ccn(-c4ccc(S(C)(=O)=O)cc4)c3n2)cc(OC)c1OC [Example 4, [7-(4-Methanesulfonyl-phenyl)-7H-pyrrolo[2,3-d]pyrimidin-2-yl]-(3,4,5-trimethoxy-phenyl)-amine] | 2.2 nM | 36.7 nM |
| O=S1(=O)CCN(Cc2c(F)cc(-n3ccc4cnc(Nc5ccc(N6CCNCC6)nc5)nc43)cc2F)CC1 [Example 444, {7-[4-(1,1-Dioxido-thiomorpholin-4-ylmethyl)-3,5-difluoro-phenyl]-7H-pyrrolo[2,3-d]pyrimidin-2-yl}-(6-piperazin-1-yl-pyridin-3-yl)-amine] | ≤ 3 nM | 90 nM |

Continued, values first:

| IC50 (GST-JAK2(808-1132)) | IC50 [1] | Compound |
| --- | --- | --- |
| 11 nM | 1620 nM | CC(C)Oc1ccc(Nc2ncc3ccn(-c4cc(F)c(CN5CCOCC5)c(F)c4)c3n2)cc1 [Example 126, [7-(3,5-Difluoro-4-morpholin-4-ylmethyl-phenyl)-7H-pyrrolo[2,3-d]pyrimidin-2-yl]-(4-isopropoxy-phenyl)-amine] |
| 12 nM | 5300 nM | CN1CCN(C(=O)c2ccc(-n3ccc4cnc(Nc5ccc(F)cc5)nc43)cc2F)CC1 [Example 58, {2-Fluoro-4-[2-(4-fluoro-phenylamino)-pyrrolo[2,3-d]pyrimidin-7-yl]-phenyl}-(4-methyl-piperazin-1-yl)-methanone] |
| 3.8 nM | 3500 nM | CC(C)Oc1ccc(Nc2ncc3ccn(-c4ccc(C(=O)N5CCN(C)CC5)c(F)c4)c3n2)cc1 [Example 85, {2-Fluoro-4-[2-(4-isopropoxy-phenylamino)-pyrrolo[2,3-d]pyrimidin-7-yl]-phenyl}-(4-methyl-piperazin-1-yl)-methanone] |
| 155 nM | 7850 nM | CCN1CCN(Cc2ccc(-n3ccc4cnc(Nc5ccc(C)c(Cl)c5)nc43)cc2F)CC1 [Example 120, (3-Chloro-4-methyl-phenyl)-{7-[4-(4-ethyl-piperazin-1-ylmethyl)-3-fluoro-phenyl]-7H-pyrrolo[2,3-d]pyrimidin-2-yl}-amine] |
| 13 nM | 60 nM | Cc1ccc(Nc2ncc3ccn(-c4ccc(CC(=O)N5CCS(=O)(=O)CC5)c(F)c4)c3n2)cc1C [Example 156, 2-{4-[2-(3,4-Dimethyl-phenylamino)-pyrrolo[2,3-d]pyrimidin-7-yl]-2-fluoro-phenyl}-1-(1,1-dioxido-1-thiomorpholin-4-yl)-ethanone] |
| 10.4 nM | 1520 nM | COCc1ccc(Nc2ncc3ccn(-c4cc(F)c(CN5CCCC5)c(F)c4)c3n2)cc1 [Example 179, [7-(3,5-Difluoro-4-pyrrolidin-1-ylmethyl-phenyl)-7H-pyrrolo[2,3-d]pyrimidin-2-yl]-(4-methoxymethyl-phenyl)-amine] |
| 7.1 nM | 835 nM | O=C(c1ccc(-n2ccc3cnc(Nc4ccc(F)cc4)nc32)cc1)N1CCOCC1 [Example 61, {4-[2-(4-Fluoro-phenylamino)-pyrrolo[2,3-d]pyrimidin-7-yl]-phenyl}-morpholin-4-yl-methanone] |
| 6.6 nM | 1680 nM | CC(C)Oc1ccc(Nc2ncc3ccn(-c4ccc(CN5CCCNCC5)c(F)c4)c3n2)cc1 [Example 108] |
| 88 nM | 1760 nM | Cc1ccc(Nc2ncc3ccn(-c4ccc(CN5CCOCC5)cc4)c3n2)cc1Cl [Example 119, (3-Chloro-4-methyl-phenyl)-[7-(4-morpholin-4-ylmethyl-phenyl)-7H-pyrrolo[2,3-d]pyrimidin-2-yl]-amine] |
